Source: patent US8592454B2, “Nitrogen-containing heterocyclic compound and use of same” (Takeda Pharmaceutical Company Limited, priority 2008, dated 2013)
Structures can show the parent of a compound that is named as a salt. Where two headings read alike, the source gives them in different places.

Legend:
Human NK1 Receptor = Human NK1 Receptor (Homo sapiens (Human), UniProt P25103); experiment: Human NK1 receptor binding assay: radioligand (125I-Bolton-Hunter-SP) binding inhibitory activity using receptor from human lymphoblast cells (IM-9); details: hNK1 receptor binding inhibition
Chain of Human NK1 Receptor (P25103 whole entry): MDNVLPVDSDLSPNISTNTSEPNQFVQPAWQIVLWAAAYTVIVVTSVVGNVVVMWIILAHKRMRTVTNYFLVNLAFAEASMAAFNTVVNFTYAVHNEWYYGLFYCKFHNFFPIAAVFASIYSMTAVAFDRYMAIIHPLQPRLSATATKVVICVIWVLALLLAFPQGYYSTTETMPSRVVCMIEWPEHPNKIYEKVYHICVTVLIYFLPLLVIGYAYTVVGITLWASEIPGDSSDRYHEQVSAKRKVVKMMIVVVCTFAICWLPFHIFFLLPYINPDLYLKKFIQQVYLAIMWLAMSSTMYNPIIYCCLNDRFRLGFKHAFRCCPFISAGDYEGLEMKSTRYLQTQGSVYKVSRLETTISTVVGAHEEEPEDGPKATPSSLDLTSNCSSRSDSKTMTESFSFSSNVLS

[1] = molecular target: Human NK2 (hNK2) receptor (Homo sapiens (Human), UniProt P21452); experiment: Human NK2 receptor binding assay: radioligand ([125I]-NK-A) binding inhibitory activity using membrane fraction of CHO cell expressing human NK2 (hNK2) receptor; details: hNK2 receptor binding inhibition
Chain of Human NK2 (hNK2) receptor (P21452 whole entry): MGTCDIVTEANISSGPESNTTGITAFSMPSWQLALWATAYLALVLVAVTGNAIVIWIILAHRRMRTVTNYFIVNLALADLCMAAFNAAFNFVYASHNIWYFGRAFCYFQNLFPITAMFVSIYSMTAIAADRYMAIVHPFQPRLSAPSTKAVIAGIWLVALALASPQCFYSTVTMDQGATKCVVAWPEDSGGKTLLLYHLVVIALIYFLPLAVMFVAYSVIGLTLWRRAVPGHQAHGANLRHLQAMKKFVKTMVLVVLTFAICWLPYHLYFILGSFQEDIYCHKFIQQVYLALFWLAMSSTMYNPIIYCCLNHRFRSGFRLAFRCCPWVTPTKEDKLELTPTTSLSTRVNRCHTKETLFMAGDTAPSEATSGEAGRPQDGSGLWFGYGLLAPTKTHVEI
Text: Human NK2 Receptor Binding Assay

[2] = molecular target: Human NK3 (hNK3) receptor (Homo sapiens (Human), UniProt P29371)
Chain of Human NK3 (hNK3) receptor (P29371 whole entry): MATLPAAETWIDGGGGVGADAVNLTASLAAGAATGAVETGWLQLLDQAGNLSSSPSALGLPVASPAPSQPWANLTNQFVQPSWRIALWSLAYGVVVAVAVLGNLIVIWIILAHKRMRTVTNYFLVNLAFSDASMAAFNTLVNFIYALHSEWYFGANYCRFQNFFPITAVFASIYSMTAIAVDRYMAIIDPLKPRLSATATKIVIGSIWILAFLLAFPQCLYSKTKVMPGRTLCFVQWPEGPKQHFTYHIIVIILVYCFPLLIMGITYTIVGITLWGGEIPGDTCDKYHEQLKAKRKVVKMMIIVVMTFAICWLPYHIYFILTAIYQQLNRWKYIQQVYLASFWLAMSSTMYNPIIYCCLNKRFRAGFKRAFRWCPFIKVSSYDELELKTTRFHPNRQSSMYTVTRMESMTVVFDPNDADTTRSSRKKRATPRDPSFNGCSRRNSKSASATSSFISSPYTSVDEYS
Experimental: Human NK3 Receptor Binding Assay
CHO cells expressing hNK3 receptor were cultured in a MEMα medium (Nikken Seibutsu Igaku Kenkyusho, K.K.) containing 100 U/mL penicillin, 100 μg/mL streptomycin and 10% inactivated dialyzed serum. The medium was removed, the adhered cells were washed with PBS, and PBS containing 5 mM EDTA was added to detach the cells from the flask. The cells were collected by centrifugation, suspended in suspension buffer A (50 mM Tris-HCl (pH 7.4) containing 120 mM NaCl, 5 mM KCl, 2 μg/mL chymostatin, 40 μg/mL bacitracin, 40 μg/ml APMSF, 1 mM EDTA), disrupted by a Polytron homogenizer (Kinematika), and centrifuged at 800×g for 10 min. The supernatant was recovered and ultracentrifuged at 100,000×g for 25 min. The precipitation fraction was suspended in suspension buffer B (50 mM Tris-HCl (pH 7.4), 0.02% bovine serum albumin, 2 μg/ml chymostatin, 40 μg/ml bacitracin, 40 μg/mL APMSF, 3 mM MnCl2), and cryopreserved (−80° C.) as a receptor reference standard.
Measurement buffer (50 mM Tris-HCl (pH 7.4), 0.02% bovine serum albumin, 2 μg/ml chymostatin, 40 μg/mL bacitracin, 40 μg/mL APMSF, 3 mM MnCl2) (50 μL) was added to a 96-well microassay plate. The membrane reference standard (300 μg/mL) suspended in a measurement buffer was added by 50 μL. […] Furthermore, 400 μM [^125I]-NK-B (Neurokinin-B (N-Me-Phe^7), [^125I]His^3-) (PerkinElmer) solution was added to each well by 50 μL.
After reaction at 25° C. for 30 min, the reaction was quenched using a cell harvester (PerkinElmer) by rapid filtration on a GF/C filter plate, and the cells were washed 5 times with 250 μL of a 50 mM Tris-HCl buffer (pH 7.4) containing 0.02% bovine serum albumin. The GF/C filter plate was dried, MicroScinti-0 (Perkin Elmer) was added by 20 μL, and the radioactivity was measured on a TopCount (PerkinElmer). The GF/C filter plate used had been immersed in 0.3% polyethyleneimine for one day.
The specific binding level is shown by a value obtained by subtracting non-specific binding level from the total binding level. The binding inhibitory activity of the test compound is shown by a ratio of the value obtained by subtracting the measurement value with addition of a test compound from the total binding level, to the value of the specific binding level.

[3] = read-out: IC50 value hNK3, hNK3 receptor binding inhibition

IC50 (Human NK1 Receptor) [nM]	IC50 [1] [nM]	IC50 [2, 3] [nM]	IC50 [2] [nM]	SMILES
0.029	12	600		CC(=O)N1CCC(C(=O)N2C[C@@H](N(C)C(=O)N(C)c3cc(Cl)cc(Cl)c3)[C@H](c3ccc(F)cc3)C2)CC1 [Example 176, 1-[(3S,4R)-1-[(1-acetylpiperidin-4-yl)carbonyl]-4-(4-fluorophenyl)pyrrolidin-3-yl]-3-(3,5-dichlorophenyl)-1,3-dimethylurea]
0.032	120		4400	CC(=O)N1CCC(C(=O)N2C[C@@H](N(C)C(=O)N(C)c3cc(C(F)(F)F)cc(C(F)(F)F)c3)[C@H](c3ccc(F)cn3)C2)CC1 [Example 192, 1-[(3S,4R)-1-[(1-acetylpiperidin-4-yl)carbonyl]-4-(5-fluoropyridin-2-yl)pyrrolidin-3-yl]-3-[3,5-bis(trifluoromethyl)phenyl]-1,3-dimethylurea]
0.039	59	650		CN(C(=O)N(C)[C@@H]1CN(C(=O)NC2CCOCC2)C[C@H]1c1ccc(F)cc1)c1cc(C(F)(F)F)cc(C(F)(F)F)c1 [Example 378, (3S,4R)-3-[{[3,5-bis(trifluoromethyl)phenyl](methyl)carbamoyl}(methyl)amino]-4-(4-fluorophenyl)-N-(tetrahydro-2H-pyran-4-yl)pyrrolidine-1-carboxamide]
0.049	42	1100		COC(=O)N[C@H]1CC[C@H](C(=O)N2C[C@@H](N(C)C(=O)N(C)c3cc(C(F)(F)F)cc(C(F)(F)F)c3)[C@H](c3ccc(F)cc3)C2)CC1 [Example 233, methyl (trans-4-{[(3S,4R)-3-[{[3,5-bis(trifluoromethyl)phenyl](methyl)carbamoyl}(methyl)amino]-4-(4-fluorophenyl)pyrrolidin-1-yl]carbonyl}cyclohexyl)carbamate]
0.03	77		120	CN(C(=O)N(C)[C@@H]1CN(C(=O)N2CCN(S(C)(=O)=O)CC2)C[C@H]1c1ccc(F)cc1)c1cc(Cl)cc(Cl)c1 [Example 420, 1-(3,5-dichlorophenyl)-3-[(3S,4R)-4-(4-fluorophenyl)-1-{[4-(methylsulfonyl)piperazin-1-yl]carbonyl}pyrrolidin-3-yl]-1,3-dimethylurea]
0.07	2.4			CN(C(=O)N(C)[C@@H]1CN(C(=O)C2CCN(C(=O)C(C)(C)O)CC2)C[C@H]1c1ccc(F)cc1)c1cc(C(F)(F)F)cc(C(F)(F)F)c1 [Example 308, 1-[3,5-bis(trifluoromethyl)phenyl]-3-[(3S,4R)-4-(4-fluorophenyl)-1-{[1-(2-hydroxy-2-methylpropanoyl)piperidin-4-yl]carbonyl}pyrrolidin-3-yl]-1,3-dimethylurea]

Second part, the molecule before the results:

SMILES	IC50 (Human NK1 Receptor) [nM]	IC50 [1] [nM]	IC50 [2, 3] [nM]	IC50 [2] [nM]
CC(=O)N1CCC(C(=O)N2CC[C@@H](N(C)C(=O)Nc3ccc(Cl)cc3)[C@H](c3ccc(Cl)c(Cl)c3)C2)CC1 [Example 61, 1-[(3R,4R)-1-[(1-acetylpiperidin-4-yl)carbonyl]-3-(3,4-dichlorophenyl)piperidin-4-yl]-3-(4-chlorophenyl)-1-methylurea]	290	> 100	99	
CC(=O)N1CCC(C(=O)N2C[C@@H](N(C)C(=O)N(C)c3cc(C(F)(F)F)cc(C(F)(F)F)c3)[C@H](c3ccc(Cl)c(Cl)c3)C2)CC1 (racemic) [Example 66, 1-[(3S*, 4R*)-1-[(1-acetylpiperidin-4-yl)carbonyl]-4-(3,4-dichlorophenyl)pyrrolidin-3-yl]-3-[3,5-bis(trifluoromethyl)phenyl]-1,3-dimethylurea]	0.075	2		
CC(=O)N1CCC(C(=O)N2CC[C@@H](N(C)C(=O)N(C)c3cc(C(F)(F)F)cc(C(F)(F)F)c3)[C@H](c3ccc(F)cc3)C2)CC1 (relative stereo) [Example 4, 1-[(3R*,4R*)-1-[(1-acetylpiperidin-4-yl)carbonyl]-3-(4-fluorophenyl)piperidin-4-yl]-3-[3,5-bis(trifluoromethyl)phenyl]-1,3-dimethylurea]	0.11	4200		
CC(=O)N1CCC(C(=O)N2C[C@@H](N(C)C(=O)N(C)c3cc(C(F)(F)F)cc(C(F)(F)F)c3)[C@H](c3ccc(F)cc3)C2)CC1 [Example 71b]	0.027	7.1		
CC(=O)N1CCC(C(=O)N2CC[C@@H](N(C)C(=O)N(C)c3cc(C(F)(F)F)cc(C(F)(F)F)c3)[C@H](c3ccc(Cl)c(Cl)c3)C2)CC1 [Example 25, 1-[(3R,4R)-1-[(1-acetylpiperidin-4-yl)carbonyl]-3-(3,4-dichlorophenyl)piperidin-4-yl]-3-[3,5-bis(trifluoromethyl)phenyl]-1,3-dimethylurea]	0.031	7.1	1400	
CN(C(=O)N(C)[C@@H]1CCN(C2CCS(=O)(=O)CC2)C[C@H]1c1ccc(F)cc1)c1cc(C(F)(F)F)cc(C(F)(F)F)c1 [Example 104, 1-[3,5-bis(trifluoromethyl)phenyl]-3-[(3R,4R)-1-(1,1-dioxidetetrahydro-2H-thiopyran-4-yl)-3-(4-fluorophenyl)piperidin-4-yl]-1,3-dimethylurea monohydrochloride]	0.073	100		
